The text below walks through data of ChEMBL document CHEMBL1157369, “Inhibition of type III secretion in Salmonella enterica serovar Typhimurium by small-molecule inhibitors” (Antimicrob Agents Chemother, 2007).

Calls of active or inactive are those of the source. The rule behind the calls is not given here.

The subject of data set [1] is Salmonella enterica subsp. enterica serovar Typhimurium. Nature of the data set: Inhibition of T3SS-1-mediated secretion of SipA protein in Salmonella enterica serovar Typhimurium 4/74 at 100 uM after 4 hrs by SDS-PAGE.
The test system is the same in data set [2]. Nature of the data set: Inhibition of T3SS-1-mediated secretion of SipC protein in Salmonella enterica serovar Typhimurium 4/74 at 100 uM after 4 hrs by SDS-PAGE.
Data set [3] shares this test system. Nature of the data set: Inhibition of T3SS-1-mediated secretion of SopE protein in Salmonella enterica serovar Typhimurium 4/74 at 100 uM after 4 hrs by SDS-PAGE.
The subject of data set [4] is Salmonella typhimurium. Nature of the data set: Effect on viability of Salmonella enterica serovar Typhimurium 4/74 at 100 uM after 4 hrs. The data set is classed as functional, organism-based. The settings on record: Salmonella enterica subsp. enterica serovar Typhimurium.
Data set [5] deals with Salmonella enterica subsp. enterica serovar Typhimurium. Nature of the data set: Inhibition of T3SS-1-mediated secretion of SipA protein in Salmonella enterica serovar Typhimurium 4/74 after 4 hrs by SDS-PAGE.
The test system is the same in data set [6]. In words: Inhibition of T3SS-1-mediated secretion of SipC protein in Salmonella enterica serovar Typhimurium 4/74 after 4 hrs by SDS-PAGE.
The test system is the same in data set [7]. Nature of the data set: Inhibition of T3SS-1-mediated secretion of SopE protein in Salmonella enterica serovar Typhimurium 4/74 after 4 hrs by SDS-PAGE.
The subject of another data set is HeLa. Nature of the data set: Toxicity against human HeLa cells at 0.1 to 10 uM after 3 hrs. The format is cell-based.
For data set [8], the system named is Salmonella enterica subsp. enterica serovar Typhimurium. In words: Inhibition of T3SS-1 associated virulence phenotype in 1.5 hrs 100 uM pretreated Salmonella enterica serovar Typhimurium 4/74 assessed as reduction of contact dependent hemolysis of sheep erythrocytes relative to wild-type.
In data set [9] the test system is Salmonella typhimurium. In words: Reduction of Salmonella enterica serovar Typhimurium 4/74 invasion of human HeLa cells preincubated at 100 uM for 1 hr relative to control. Also noted: scale not given: the % may be the effect or the level left. The data set is classed as functional, Salmonella enterica subsp. enterica serovar Typhimurium.
In data set [10] the test system is Salmonella typhimurium. In words: Suppression of 1.5 hrs 100 uM pretreated Salmonella enterica serovar Typhimurium 4/74 infection-induced intestinal secretory response in Friesian bull intestinal ligated loop model. The data set is classed as functional, organism-based. The settings on record: Salmonella enterica subsp. enterica serovar Typhimurium.
The test system of data set [11] is Salmonella typhimurium. In words: Suppression of 1.5 hrs 100 uM pretreated Salmonella enterica serovar Typhimurium 4/74 infection-induced inflammatory response in Friesian bull intestinal ligated loop model assessed as polymorphonuclear leucocyte influx. The format is functional, organism-based. The note with it: Salmonella enterica subsp. enterica serovar Typhimurium.

Data set [12] relates to Salmonella typhimurium. In words: Suppression of Salmonella enterica serovar Typhimurium 4/74 infection-induced intestinal secretory response in Friesian bull intestinal ligated loop model at 100 uM coadministered with bacterial challenge. The settings on record: Salmonella enterica subsp. enterica serovar Typhimurium. The format is functional, organism-based.
Data set [13] has as its system Salmonella typhimurium. In words: Suppression of Salmonella enterica serovar Typhimurium 4/74 infection-induced inflammatory response in Friesian bull intestinal ligated loop model assessed as polymorphonuclear leucocyte influx at 100 uM coadministered with bacterial challenge. The data set is classed as functional, organism-based. The settings on record: Salmonella enterica subsp. enterica serovar Typhimurium.

Consider `O=C(N/N=C/c1cc(Cl)cc(Cl)c1O)c1ccccc1`, for which the outcome (in [1]; in data set [2]; in data set [3]; in data set [8]; with Salmonella typhimurium [10]; in the data set on Salmonella typhimurium [11]) was Active. Besides, the outcome in the data set on Salmonella typhimurium [4], with Salmonella typhimurium [12] and with Salmonella typhimurium [13] was inactive. In addition, the Activity result in data set [5] was “Dose-dependent effect”; in [7], “Dose-dependent effect”; in the data set on HeLa, “Non-toxic”; in the data set with Salmonella typhimurium [9], 60%. In data set [6], the “%max” value was “Dose-dependent effect”.
Consider `O=C(N/N=C/c1cc(Br)cc(Br)c1O)c1ccc([N+](=O)[O-])cc1`, for which the outcome (in data set [1]; in [2]; in [3]; in data set [8]; in the data set on Salmonella typhimurium [10]; with Salmonella typhimurium [11]) was Active. Further, the result with Salmonella typhimurium [4], in the data set with Salmonella typhimurium [12] and in the data set on Salmonella typhimurium [13] was inactive. Moreover, the Activity entry in [5] was “Dose-dependent effect”; in [7] it was “Dose-dependent effect”; with HeLa it was “Non-toxic”; in the data set on Salmonella typhimurium [9], 47%. Also, in data set [6], the “%max” value is “Dose-dependent effect”.
